In article PMC10258794, “To Fold or Not to Fold: Diastereomeric Optimization of an α-Helical Antimicrobial Peptide” (Journal of Medicinal Chemistry, 2023):
In brackets after ≈: the same amount, converted by molar mass. Like-named read-outs stand apart in the source and are kept apart here. Non-standard residues stand in square brackets, D forms with d. Residues, ends and D or L forms follow the SMILES beside them.

Tests used:
[1] = tested on: Pseudomonas aeruginosa, Klebsiella pneumoniae, Acinetobacter baumannii, Escherichia coli, and methicillin-resistant Staphylococcus aureus; conditions: summary of Table 1
Outline: (§1)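 MTT read-out: lowest concentration with no visible growth (yellow wells, unaided eye) taken as MIC. Inoculum ~5 × 10^5 CFU in MH pH 7.4 from OD600 0.022 dilution; 2-fold compound series; 16–20 h, 37 °C, no shaking.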

[2] = tested on: P. aeruginosa PAO1
Outline: as §1

[3] = tested on: E. coli W3110
Outline: as §1

[4] = tested on: K. pneumoniae NCTC418
Outline: as §1

[5] = tested on: A. baumannii ATCC19606
Outline: as §1

[6] = tested on: S. aureus COL MRSA; conditions: for MIC S. aureus COL MRSA: MH broth pH 7.4, 16–20 h, 37 °C
Outline: as §1

[7] = EYPC vesicle leakage assay; format: biochemical; conditions: 10 μg/mL of compound; 10 mM TRIS, 107 mM NaCl, pH 7.4
Outline: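 Egg PC or egg PG vesicles (~2.5 mM lipid) were loaded with 50 mM CF in 10 mM TRIS pH 7.4, with 10 mM TRIS/107 mM NaCl outside. Peptide at 10 or 50 μg/mL was added at 45 s, and CF efflux was followed at λex 492/λem 517 nm, normalized to complete lysis.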

[8] = tested on: human red blood cells; assay: Hemolysis assay (MHC)
Procedure: To determine the MHC stock solutions, 8 mg/mL peptide in PBS (pH 7.4) was prepared, and 50 μL was diluted serially by l/2 in 50 μL of PBS (pH 7.4) in a 96-well plate (Costar or Nunc, polystyrene, untreated). […] Plasma was discarded, and the pellet was re-suspended in a 15 mL Falcon tube in 5 mL of PBS. The washing was repeated three times, and the remaining pellet was re-suspended in 10 mL of PBS. The hRBC suspension (50 μL) was added to each well, and the plate was incubated at room temperature for 4 h. MHC end points were determined by visual determination of the wells after the incubation period. Controls on each plate included a blank medium control (50 μL PBS + 50 μL of hRBCs suspension) and a hemolytic activity control (mQ-deionized water 50 μL + 50 μL hRBC suspension).

[9] = EYPG vesicle leakage assay; format: biochemical; conditions: 10 μg/mL of compound; 10 mM TRIS, 107 mM NaCl, pH 7.4
Procedure: 5(6)-carboxyfluorescein (CF) was purchased from Sigma. EYPC, EYPG, and a Mini-Extruder were purchased from Avanti Polar Lipids. Egg PC or Egg PG thin lipid layers were prepared by evaporating a solution of 100 mg of EYPC or EYPG in 4 mL of MeOH/CHCl3 (1:1) on a rotary evaporator at room temperature and then dried in vacuo overnight. […] Extravesicular components were removed by gel filtration (Sephadex G-50) with 10 mM TRIS, 107 mM NaCl, pH 7.4 buffer. Final conditions: ∼2.5 mM PC or PG; inside: 50 mM CF, 10 mM TRIS, 10 mM NaCl, pH 7.4 buffer; outside: 10 mM TRIS, 107 mM NaCl, pH 7.4. […] The CF efflux was monitored at λem 517 nm (λex 492 nm) as a function of time after addition of the desired volume of peptide from 2 mg/mL stock in mQ water at t = 45 s, 10 and 50 μg/mL were monitored for both EYPC and EYPG. […] Fluorescence intensities were then normalized to the maximal emission intensity using I(t) = (It – I0)/(I∞ – I0) where I0 = It at peptide addition, I∞ = It at saturation of lysis.

[10] = CD spectroscopy, α-helix content; format: physicochemical; conditions: 5 mM DPC in 7 mM PB buffer pH 7.4, Dichroweb Contin LL set 4
Procedure: CD experiments were measured on a Jasco J-715 spectropolarimeter. All the experiments were performed using Hellma Suprasil 110-QS 0.1 cm cuvettes. For each peptide, the measurements were performed in phosphate buffer (PB, pH = 7.4, 7 mM), 10% TFE, 20% TFE, 5 mM DPC. The buffer was degassed for 10 min under high vacuum before each set of experiments. The concentration of the peptides was 0.100 mg/mL, and each sample was measured in one accumulation. The scan rate was 20 nm/min, pitch was 0.5 nm, response was 16 s, and bandwidth was 1.0 nm. The nitrogen flow was kept >8 L/min. After each measurement, the cuvettes were washed successively with milli-Q H2O and PB (pH 7.4). The baseline was recorded under the same conditions and subtracted manually. Primary CD spectra were analyzed using DichroWeb[58] and Contin-LL method (set 4).[74]

[11] = MH broth pH 7.4, 16–20 h, 37 °C

Molecule | MIC, span over the five bacterial strains [1] | MIC P. aeruginosa PAO1 [2, 11] [mg/L] | MIC P. aeruginosa PAO1 ([2]; PAO1) [mg/L] | MIC E. coli W3110 [3, 11] [mg/L] | MIC E. coli W3110 ([3]; supplementary CSV, ranges of Table 1 given as one number) [mg/L] | MIC K. pneumoniae NCTC418 [4, 11] [mg/L] | MIC A. baumannii ATCC19606 ([5]; ATCC19606) [mg/L] | MIC A. baumannii ATCC19606 [5, 11] [mg/L] | MIC S. aureus COL [6] [mg/L] | MIC S. aureus COL MRSA [6] [mg/L] | EYPC vesicle leakage (%) [7] [%] | MHC [8] [µg/mL] | MHC ([8]; pH 7.4) [µg/mL] | EYPG vesicle leakage (%) [9] [%] | α-helix content (%) [10] [%] | MIC K. pneumoniae NCTC418 ([4]; NCTC418) [mg/L] | MIC A. baumannii ATCC19606 ([5]; ATCC19606, pH 7.4) [mg/L]
CC(C)C[C@H](NC(=O)[C@H](CC(C)C)NC(=O)[C@H](CC(C)C)NC(=O)[C@@H](CCCCN)NC(=O)[C@H](CC(C)C)NC(=O)[C@H](CC(C)C)NC(=O)[C@@H](CCCCN)NC(=O)[C@H](CC(C)C)NC(=O)[C@H](CC(C)C)NC(=O)[C@@H](CCCCN)NC(=O)[C@@H](CCCCN)NC(=O)[C@H](CC(C)C)NC(=O)[C@H](CC(C)C)NC(=O)[C@H](CC(C)C)NC(=O)[C@@H](CCCCN)NC(=O)[C@H](CC(C)C)NC(=O)[C@H](CC(C)C)NC(=O)[C@@H](CCCCN)NC(=O)[C@H](CC(C)C)NC(=O)[C@H](CC(C)C)NC(=O)[C@@H](CCCCN)NC(=O)[C@H](N)CCCCN)C(N)=O [2ln69, (kkLLkLLkLLL)2] (H-[dK][dK]LL[dK]LL[dK]LLL[dK][dK]LL[dK]LL[dK]LLL-NH2) | entirely inactive | >64 | >64 | >64 | >64 | >64 | >64 | >64 | >64 | >64 | 74 | < 15.6 | <15.6 | 71 | 82 |  | 
CC[C@H](C)[C@H](NC(=O)[C@@H](NC(=O)[C@@H](NC(=O)[C@@H](CCCCN)NC(=O)[C@@H](NC(=O)[C@@H](NC(=O)[C@@H](CCCCN)NC(=O)[C@@H](NC(=O)[C@@H](NC(=O)[C@@H](CCCCN)NC(=O)[C@H](N)CCCCN)[C@@H](C)CC)[C@@H](C)CC)[C@@H](C)CC)[C@@H](C)CC)[C@@H](C)CC)[C@@H](C)CC)C(N)=O [HP35, kkIIkIIkIII] (H-[dK][dK]II[dK]II[dK]III-NH2) |  | 16 (≈ 12.1 µM) |  | 4 (≈ 3.03 µM) |  | >64 |  | 8 (≈ 6.05 µM) | >64 | >64 | 13 | 125 | 125 | 98 | 22 |  | 
H-KKIIKIIKIII-NH2 [HP34] |  | >64 |  | 32 |  | >64 | 12 |  |  | >64 | 10 | 63 | 62.5 | 95 | 68 | >64 | 8 to 16
H-KKLLKLLKLLLKKLLKLLKLLL-NH2 [2ln65] | entirely inactive | >64 |  | >64 |  | >64 |  | >64 |  | >64 | 40 | < 15.6 | <15.6 | 73 | 91 | >64 | 
